Laboratory results published in ChEMBL document CHEMBL3045060, “Synthesis of some urea and thiourea derivatives of naphtha[1,2-d]thiazol-2-amine as anti-Parkinsonian agents that cause neuroprotection against haloperidol-induced oxidative stress in mice” (2009).

Tests used:
Assay type in all cases: functional
Mus musculus [1] = assay: Neuroprotective activity in Mus musculus Swiss albino (mouse) model assessed as reduction in haloperidol-induced catalepsy at 100 mg/kg, ip administered 30 min before haloperidol challenge measured for 30 to 180 min; parameters: scale not given: the % may be the effect or the level left; details: route intraperitoneal
Mus musculus [2] = assay: Neuroprotective activity in haloperidol-induced catalepsy Mus musculus Swiss albino (mouse) model assessed as mean descent time at 100 mg/kg, po administered 30 min before haloperidol challenge measured at 60 min post challenge
Mus musculus [3] = assay: Neuroprotective activity in haloperidol-induced catalepsy Mus musculus Swiss albino (mouse) model assessed as mean cumulative descent time at 100 mg/kg, po administered 30 min before haloperidol challenge (reference value: 33 +/- 1.34 min)
Mus musculus [4] = assay: Neuroprotective activity in haloperidol-induced catalepsy Mus musculus Swiss albino (mouse) model assessed as mean descent time at 100 mg/kg, po administered 30 min before haloperidol challenge measured at 150 min post challenge
Mus musculus [5] = assay: Neuroprotective activity in haloperidol-induced catalepsy Mus musculus Swiss albino (mouse) model assessed as mean descent time at 100 mg/kg, po administered 30 min before haloperidol challenge measured at 180 min post challenge
Mus musculus [6] = assay: Neuroprotective activity in haloperidol-induced catalepsy Mus musculus Swiss albino (mouse) model assessed as mean descent time at 100 mg/kg, po administered 30 min before haloperidol challenge measured at 30 min post challenge
Mus musculus [7] = assay: Neuroprotective activity in haloperidol-induced catalepsy Mus musculus Swiss albino (mouse) model assessed as mean descent time at 100 mg/kg, po administered 30 min before haloperidol challenge measured at 90 min post challenge
Mus musculus [8] = assay: Neuroprotective activity in haloperidol-induced catalepsy Mus musculus Swiss albino (mouse) model assessed as mean descent time at 100 mg/kg, po administered 30 min before haloperidol challenge measured at 120 min post challenge
Mus musculus [9] = assay: (§1) Neuroprotective activity in haloperidol-induced catalepsy Mus musculus Swiss albino (mouse) model assessed as GSH-Px activity per mg protein in brain homogenate at 100 mg/kg, po administered 30 min before haloperidol challenge measured after 4 hr post challenge by spectrophotometry (reference value: 2.129 +/- 0.06 U/mg protein)
Mus musculus [10] = assay: as §1, with “inhibition of MDA equivalent TBARS release” for “GSH-Px activity”, “1.157” for “2.129”, “nmol/mg” for “U/mg”
Mus musculus [11] = assay: as §1, with “as Cu-Zn-SOD” for “as GSH-Px”, “per gram” for “per mg”, “by NBT reduction assay” for “by spectrophotometry”, “value: 1.794” for “value: 2.129”, “+/- 0.03 U/g” for “+/- 0.06 U/mg”
Mus musculus [12] = assay: as §1, with “GSH level” for “GSH-Px activity”, “gram of” for “mg protein in”, “tissue” for “homogenate”, “23.45” for “2.129”, “0.23 ug/g tissue)” for “0.06 U/mg protein)”

Structure (SMILES) | Activity (Mus musculus [1]) [%] | Time (Mus musculus [2]) [s] | Time (Mus musculus [3]) [min] | Time (Mus musculus [4]) [s] | Time (Mus musculus [5]) [s] | Time (Mus musculus [6]) [s] | Time (Mus musculus [7]) [s] | Time (Mus musculus [8]) [s] | Activity (Mus musculus [9]) [U/mg] | Activity (Mus musculus [10]) [nmol/mg protein] | Activity (Mus musculus [11]) [U/g protein] | Activity (Mus musculus [12]) [µg/g]
S=C(Nc1nc2c(ccc3ccccc32)s1)Nc1ccccc1Br | 30.96 | 160 | 18.1 | 223 | 226 | 83 | 189 | 207 | – | – | – | –
S=C(Nc1ccc(Br)cc1)Nc1nc2c(ccc3ccccc32)s1 | 35.27 | 139 | 17 | 223 | 220 | 57 | 161 | 222 | – | – | – | –
S=C(Nc1nc2c(ccc3ccccc32)s1)Nc1ccccc1Cl | 39.14 | 156 | 16.1 | 189 | 186 | 69 | 173 | 190 | – | – | – | –
S=C(Nc1ccc(Cl)cc1)Nc1nc2c(ccc3ccccc32)s1 | 27.88 | 169 | 18.9 | 232 | 228 | 92 | 198 | 216 | – | – | – | –
O=[N+]([O-])c1ccccc1NC(=S)Nc1nc2c(ccc3ccccc32)s1 | 72.97 | 36 | 7.43 | 109 | 122 | 20 | 71 | 88 | 1.77 | 3.226 | 1.398 | 12.5
O=[N+]([O-])c1ccc(NC(=S)Nc2nc3c(ccc4ccccc43)s2)cc1 | 32.13 | 178 | 17.8 | 207 | 208 | 77 | 199 | 201 | – | – | – | –
Cc1ccccc1NC(=S)Nc1nc2c(ccc3ccccc32)s1 | 49.87 | 110 | 13.3 | 160 | 166 | 68 | 138 | 157 | – | – | – | –
Cc1ccc(NC(=S)Nc2nc3c(ccc4ccccc43)s2)cc1 | 47.97 | 114 | 13.8 | 173 | 172 | 72 | 136 | 161 | – | – | – | –
O=C(Nc1ccccc1)Nc1nc2c(ccc3ccccc32)s1 | 44.44 | 132 | 14.7 | 172 | 176 | 72 | 156 | 174 | – | – | – | –
COc1ccc(NC(=O)Nc2nc3c(ccc4ccccc43)s2)cc1 | 58.51 | 99 | 11.1 | 136 | 138 | 41 | 122 | 131 | – | – | – | –
COc1ccc(NC(=O)Nc2nc3c(ccc4ccccc43)s2)c(OC)c1 | 75 | 35 | 6.92 | 120 | 121 | 32 | 39 | 68 | 1.61 | 2.706 | 1.469 | 13.6
COc1cc(NC(=O)Nc2nc3c(ccc4ccccc43)s2)cc(OC)c1OC | 70.29 | 68 | 8.12 | 107 | 109 | 29 | 85 | 89 | – | – | – | –
O=C(Nc1ccc(Oc2ccccc2)cc1)Nc1nc2c(ccc3ccccc32)s1 | 55.56 | 110 | 11.9 | 135 | 140 | 76 | 119 | 132 | – | – | – | –
O=C(Nc1nc2c(ccc3ccccc32)s1)Nc1ccccc1F | 29.12 | 118 | 18.6 | 245 | 272 | 57 | 188 | 236 | – | – | – | –
O=C(Nc1ccc(F)cc1)Nc1nc2c(ccc3ccccc32)s1 | 30.3 | 159 | 18.3 | 226 | 226 | 84 | 196 | 207 | – | – | – | –
O=C(Nc1nc2c(ccc3ccccc32)s1)Nc1ccccc1Br | 38.74 | 131 | 16.1 | 219 | 200 | 77 | 145 | 197 | – | – | – | –

Structure (SMILES) | Activity (Mus musculus [1]) [%] | Time (Mus musculus [2]) [s] | Time (Mus musculus [3]) [min] | Time (Mus musculus [4]) [s] | Time (Mus musculus [5]) [s] | Time (Mus musculus [6]) [s] | Time (Mus musculus [7]) [s] | Time (Mus musculus [8]) [s] | Activity (Mus musculus [9]) [U/mg] | Activity (Mus musculus [10]) [nmol/mg protein] | Activity (Mus musculus [11]) [U/g protein] | Activity (Mus musculus [12]) [µg/g]
O=C(Nc1ccc(Br)cc1)Nc1nc2c(ccc3ccccc32)s1 | 37.76 | 123 | 16.4 | 214 | 218 | 82 | 156 | 191 | – | – | – | –
O=C(Nc1nc2c(ccc3ccccc32)s1)Nc1ccccc1Cl | 37.37 | 141 | 16.5 | 211 | 232 | 59 | 159 | 188 | – | – | – | –
O=C(Nc1ccc(Cl)cc1)Nc1nc2c(ccc3ccccc32)s1 | 38.61 | 127 | 16.2 | 199 | 194 | 78 | 171 | 202 | – | – | – | –
O=C(Nc1nc2c(ccc3ccccc32)s1)Nc1cc(C(F)(F)F)ccc1Cl | 51.37 | 114 | 12.9 | 150 | 148 | 67 | 141 | 156 | – | – | – | –
O=C(Nc1nc2c(ccc3ccccc32)s1)Nc1ccccc1[N+](=O)[O-] | 72.05 | 54 | 7.67 | 98 | 145 | 19 | 57 | 87 | – | – | – | –
O=C(Nc1ccc([N+](=O)[O-])cc1)Nc1nc2c(ccc3ccccc32)s1 | 31.28 | 113 | 18.1 | 245 | 269 | 51 | 176 | 229 | – | – | – | –
Cc1ccccc1NC(=O)Nc1nc2c(ccc3ccccc32)s1 | 47.64 | 116 | 13.9 | 170 | 172 | 71 | 138 | 166 | – | – | – | –
Cc1ccc(NC(=O)Nc2nc3c(ccc4ccccc43)s2)cc1 | 48.56 | 113 | 13.7 | 168 | 171 | 69 | 137 | 161 | – | – | – | –
S=C(Nc1ccccc1)Nc1nc2c(ccc3ccccc32)s1 | 44.63 | 129 | 14.7 | 174 | 182 | 65 | 151 | 178 | – | – | – | –
COc1ccc(NC(=S)Nc2nc3c(ccc4ccccc43)s2)cc1 | 58.05 | 112 | 11.2 | 129 | 145 | 44 | 116 | 128 | – | – | – | –
COc1ccccc1NC(=S)Nc1nc2c(ccc3ccccc32)s1 | 75.46 | 44 | 6.8 | 98 | 95 | 19 | 65 | 87 | 2.1 | 2.045 | 1.684 | 13.1
Fc1ccccc1NC(=S)Nc1nc2c(ccc3ccccc32)s1 | 38.35 | 143 | 16.2 | 206 | 234 | 57 | 152 | 183 | – | – | – | –
Fc1ccc(NC(=S)Nc2nc3c(ccc4ccccc43)s2)cc1 | 34.95 | 98 | 17.1 | 232 | 241 | 43 | 167 | 246 | – | – | – | –
O=C(CCCN1CCC(O)(c2ccc(Cl)cc2)CC1)c1ccc(F)cc1 [HALOPERIDOL] | – | 217 | 26 | 300 | 300 | 176 | 268 | 300 | 1.14 | – | – | 6.85
N[C@@H](Cc1ccc(O)c(O)c1)C(=O)O [LEVODOPA] | 65.64 | 49 | 9.3 | 122 | 137 | 32 | 99 | 119 | – | – | – | –
